{"source": "patent US4608365A", "about": "“Treatment of neurologic functions” (priority 1984, dated 1986)", "key": {"ALS patients [1]": {"test_system": "ALS patients", "format": "in vivo, human", "description": "Three fasting ALS patients (men aged 37 and 60 and a person; duration of disease three-quarters of a year, one and three years, respectively) were each given an intravenous infusion of TRH in which the dose increased in seven steps from 0.5 to 19 mg/minute over sixty to eighty minutes (total dose 320, 432 and 500 mg). The two men had major spasticity from upper motor neuron involvement and weakness from lower motor neuron involvement. […] Shivering, tachypnoea and sweating increased further with rising dosage, and in the two men the infusion was stopped at 19 mg/minute, after 320 and 432 mg total, because of tachypnoea (40-45 breaths per minute) and vigorous shivering. There also was a transient increase in pulse rate (10-15 beats per minute). The men experienced sensations of coolness or warmth of the anterior lower chest and abdomen. One of the men felt \"bad all over\" at 19 mg/minute. […] At that time, a spinal lumbar puncture was performed to obtain cerebrospinal fluid for analysis as hereinafter described. The patient had no spasticity, only weakness from lower motor neuron involvement. […] Their infusion was stopped when the drug supply was depleted (at 500 mg total dose). The dosage was not stopped because of side-effects of TRH. […] Experience with the additional patients confirmed the observation that there is more shivering side-effect in the patients with more spasticity.\n(§1) There were several control aspects of the TRH studies. […] The patients given subcutaneous TRH had treatments interspersed with saline placebo injections. […] The time course of response was not known before the study and, in fact, it was expected that the onset would be later and the duration of response longer than was actually found. Different patients responded to different doses of TRH, and the sex difference in response (woman apparently less responsive) was not expected. […] There were three observers, one unaware of the infusion status. In addition, clinical examinations of all patients of Examples III-VII were videotaped and later reviewed by several observers."}, "ALS patients [2]": {"test_system": "ALS patients", "format": "in vivo, human", "description": "Nine fasting ALS patients (seven men, and two women; duration of disease, two, three, five-sixths of a year, five-sixths of a year, two and a half, four, one, one and four years, respectively) were given intravenous TRH at rates of 0.5-8 mg/minute, total 500 mg during two to five hours in one day, for one or two days. Due to the fact that the effects during the second day resembled those on the first day in the first two patients (men) and because supplies of TRH were limited, […] were treated for one day only. Before and throughout TRH administration, motor functions were repeatedly examined, the tests being selected according to the specific clinical involvement in each patient. Testing in all patients was videotaped. […] For example, muscles (such as biceps, triceps, deltoid, iliopsoas, or peroneal) that could be overcome easily by one finger before TRH administration became completely resistant to the full force of the examiner's hand (i.e., became normal or virtually normal). In one person, thumb abduction and finger-thumb pincer movement, easily overcome before the infusion of TRH, became normal. […] Speech clarity and volume improved. Spasticity of the legs lessened, as evidenced by easier, more rapid and \"looser\" bicycling-like movement, heel-shin movement and heel-knee tapping of the legs, as well as more agile walking.\nAs an extension of the Example III and IV studies, a total of twenty-three patients (including those of Examples II and IV) were given 156 intravenous dose-days total.\nas §1", "remark": "listed apart in the source"}, "ALS patients [3]": {"test_system": "ALS patients", "experiment": "Transient autorefractory effect, subcutaneous TRH in ALS patients", "format": "in vivo, human", "text": "Possible mechanisms for autorefractoriness, presumably involving the lower motor neuron soma/dendrites and/or neurons afferent thereto, include: […] In normal animals, repeated micropipetting of TRH near lower motor neurons has been shown by others to cause a similar prolonged unresponsiveness. The mechanism of autorefractoriness may be, in general, related to the excellent clinical anti-spasticity benefits of TRH, and non-excitatory TRH analogs may be employed within the spirit of the invention to enhance this type of clinical improvement."}, "[4]": {"test_system": "infant with infantile spinal muscular atrophy", "design": "species or system human", "conditions": "in vivo"}, "[5]": {"test_system": "tissue-cultured fetal rat lower motor neurons", "experiment": "Trophic-like effect on tissue-cultured fetal rat lower motor neurons (cholineactyltransferase)", "format": "cell-based", "conditions": "chronic", "text": "\"Transmitter-like,\" as used herein, includes not only direct excitatory (or facilitatory) and inhibitory actions on the lower motor neurons, but also any action on lower motor neurons or afferents thereto that results indirectly in such an effect. That excitatory TRH action, increasing patients' strength, is either directly excitatory or facilitatory and perhaps analogous to the lower motor neuron facilitation of glutamate excitation noted with TRH micropipetted into spinal cords of normal amphibia (Nicoll, J. Pharmac. Exp. Therap. 1978; 207: 817-24; Phillis et al., Can. J. Physiol. Pharmacol. 1979; 57: 887-99 and rodents, White Abstr. Soc. Neurosci 1983, 9: 714, and in other animal studies. An inhibitory transmitter-like action seems likely to underlie both the rapid-onset autorefractory phenomenon and the possibly related clinical reduction of spasticity, spasms and cramps. A tachyphalaxis or desensitization phenomenon, perhaps similar to the clinical autorefractory state, has been noted in animal lower motor neurons with larger amounts of TRH micropipetted into the spinal cord (Nicoll and Phillis, et al., supra)."}, "non-ALS patients": {"test_system": "non-ALS patients", "experiment": "Intravenous and subcutaneous TRH in non-ALS patients with lower or upper motor neuron abnormality (Example VII)", "format": "in vivo, human", "conditions": "i.v. and s.c., seven non-ALS patients", "text": "The dosage, benefits and side-effects were essentially similar to those described in Examples II, V and VI."}}, "data": [{"compound": "NC(=O)[C@@H]1CCCN1C(=O)[C@H](Cc1cnc[nH]1)NC(=O)[C@@H]1CCC(=O)N1", "note": "[TRH, L-pyroglutamyl-L-histidyl-L-prolinamide]", "values": [{"measurement": "effectiveness of low intravenous dose", "setting": "ALS patients [1]; 0.5 mg/minute for twenty minutes, Examples II and III", "value": "not found to be effective"}, {"measurement": "dose at which shivering, tachypnoea and sweating began", "setting": "ALS patients [1]; human, in vivo, iv", "value": 8, "unit": "mg/min"}, {"measurement": "transient increase in pulse rate", "setting": "ALS patients [1]; human, in vivo, iv", "value": "10-15 beats per minute"}, {"measurement": "dose at which movement and strength of legs, arms and tongue began to improve, with decreased spasticity", "setting": "ALS patients [1]; i.v. infusion increased in seven steps 0.5 to 19 mg/minute, two men", "value": "2 to 4", "unit": "mg/min"}, {"measurement": "persistence of benefits and side effects after infusion", "setting": "ALS patients [1]; i.v. stepwise infusion", "value": "no longer obvious thirty minutes after the infusion ended"}, {"measurement": "response of patient with no spasticity, only lower motor neuron weakness", "setting": "ALS patients [1]; i.v., 500 mg total dose", "value": "only slight subjective improvement in strength without obvious objective improvement"}, {"measurement": "intravenous rate at which striking improvement was shown", "setting": "ALS patients [2]; Examples II and III (summary)", "value": 2, "unit": "mg/min"}, {"measurement": "minimum intravenous infusion rate per body weight", "setting": "ALS patients [2]; based on average patient weight of 70 kilograms", "value": "≥ 14.3 μg/minute/kg of body weight"}, {"measurement": "benefit and side-effects in the two women", "setting": "ALS patients [2]; i.v. 0.5-8 mg/minute", "value": "much less benefit and many fewer side-effects than the men"}, {"measurement": "quantitative response of women relative to men", "setting": "ALS patients [2]; i.v. 0.5-8 mg/minute", "value": "resembled those of men on one-half to one-fourth of the TRH dosage"}, {"measurement": "ankle clonus", "setting": "ALS patients [2]; i.v. 2-8 mg/minute", "value": "decreased or disappeared"}, {"measurement": "brisk tendon reflexes", "setting": "ALS patients [2]; i.v. 2-8 mg/minute", "value": "diminished not at all or only slightly"}, {"measurement": "extensor plantar (Babinski) responses", "setting": "ALS patients [2]; i.v. 2-8 mg/minute", "value": "improved, becoming neutral or normal flexor"}, {"measurement": "fasciculations", "setting": "ALS patients [2]; i.v. 2-8 mg/minute", "value": "appeared to be unchanged"}, {"measurement": "spasticity of the legs", "setting": "ALS patients [2]; i.v. 2-8 mg/minute", "value": "lessened"}, {"measurement": "speech clarity and volume", "setting": "ALS patients [2]; i.v. 2-8 mg/minute", "value": "improved"}, {"measurement": "vital capacity", "setting": "ALS patients [2]; i.v. 2-8 mg/minute", "value": "increased, by as much as one liter"}, {"measurement": "residual improvement after the end of the infusion", "setting": "ALS patients [2]; i.v., total 500 mg", "value": "some slight improvement still evident twenty hours after the end of the infusion"}, {"measurement": "time improvements were sustained after the infusion", "setting": "ALS patients [2]; i.v., total 500 mg during two to five hours", "value": "one-half to one hour afterwards"}, {"measurement": "improvement of muscle weakness and spasticity", "setting": "ALS patients [2]; men, i.v. 2-8 mg/minute, in some areas of involvement", "value": "striking improvement"}, {"measurement": "duration of full benefit after intravenous infusions", "setting": "ALS patients [2]; summary", "value": "up to one hour"}, {"measurement": "partial autorefractory state, onset and duration", "setting": "ALS patients [3]; 125-150 mg s.c., first day", "value": "began by four to ten minutes and lasted, with fluctuations, two to three hours"}, {"measurement": "time to increased strength", "setting": "ALS patients [3]; 125-150 mg s.c., first day, twenty ALS patients", "value": "within one to two minutes"}, {"measurement": "effect of second dose at twenty-four hours", "setting": "ALS patients [3]; another 125-150 mg s.c.", "value": "marked weakness within two minutes"}, {"measurement": "drug resistance on repeated treatment", "setting": "ALS patients [3]; i.v. or s.c., as long as eight months", "value": "no diminution of beneficial response attributable to drug resistance"}, {"measurement": "safety and benefit on strength", "setting": "[4]", "value": "safety without side-effects and possible benefit on strength"}, {"measurement": "enhancement of cholineactyltransferase", "setting": "[5]", "value": 17, "unit": "fold"}, {"measurement": "benefit", "setting": "non-ALS patients", "value": "markedly benefited"}]}]}
